From ChEMBL document CHEMBL3792365, “Dioxol and dihydrodioxin analogs of 2- and 3-phenylacetonitriles as potent anti-cancer agents with nanomolar activity against a variety of human cancer cells” (2016)

Key:
Format in all cases: functional
786-0 = test: Growth inhibition of human 786-0 cells at 10 uM after 48 hrs by sulforhodamine B assay; details: 786-0, 48 h, values are per cent of control
[1] = Growth inhibition of human LOXIMVI cells at 10 uM after 48 hrs by sulforhodamine B assay; details: LOX IMVI, values are per cent of control
[2] = Growth inhibition of human HCT116 cells at 10 uM after 48 hrs by sulforhodamine B assay; details: HCT-116, 48 h, values are per cent of control
[3] = Growth inhibition of human NCI-ADR-RES cells at 10 uM after 48 hrs by sulforhodamine B assay; details: values are per cent of control
[4] = Growth inhibition of human TK10 cells at 10 uM after 48 hrs by sulforhodamine B assay; details: TK-10, 48 h, values are per cent of control
[5] = Growth inhibition of human HCT15 cells at 10 uM after 48 hrs by sulforhodamine B assay; details: HCT-15, 48 h, values are per cent of control
SK-MEL-5 = test: Growth inhibition of human SK-MEL-5 cells at 10 uM after 48 hrs by sulforhodamine B assay; details: SK-MEL-5, 48 h, values are per cent of control
[6] = Growth inhibition of human SF268 cells at 10 uM after 48 hrs by sulforhodamine B assay; details: SF-268, 48 h, values are per cent of control
NCI-H23 = test: Growth inhibition of human NCI-H23 cells at 10 uM after 48 hrs by sulforhodamine B assay; details: NCI-H23, 48 h, values are per cent of control
[7] = Growth inhibition of human SF539 cells at 10 uM after 48 hrs by sulforhodamine B assay; details: SF-539, 48 h, values are per cent of control
A549 = test: Growth inhibition of human A549/ATCC cells at 10 uM after 48 hrs by sulforhodamine B assay; details: A549, 48 h, values are per cent of control
SK-MEL-28 = test: Growth inhibition of human SK-MEL-28 cells at 10 uM after 48 hrs by sulforhodamine B assay; details: SK-MEL-28, 48 h, values are per cent of control
[8] = Growth inhibition of human RXF393 cells at 10 uM after 48 hrs by sulforhodamine B assay; details: RXF 393, 48 h, values are per cent of control
MDA-MB-231 = test: Growth inhibition of human MDA-MB-231 cells at 10 uM after 48 hrs by sulforhodamine B assay; details: MDA-MB-231, 48 h, values are per cent of control
[9] = Growth inhibition of human DU145 cells at 10 uM after 48 hrs by sulforhodamine B assay; details: DU-145, 48 h, values are per cent of control
NCI-H522 = test: Growth inhibition of human NCI-H522 cells at 10 uM after 48 hrs by sulforhodamine B assay; details: NCI-H522, 48 h, values are per cent of control
[10] = Growth inhibition of human UO31 cells at 10 uM after 48 hrs by sulforhodamine B assay; details: UO-31, 48 h, values are per cent of control
[11] = Growth inhibition of human COLO205 cells at 10 uM after 48 hrs by sulforhodamine B assay; details: COLO 205, 48 h, values are per cent of control
NCI-H460 = test: Growth inhibition of human NCI-H460 cells at 10 uM after 48 hrs by sulforhodamine B assay; details: NCI-H460, 48 h, values are per cent of control
[12] = Growth inhibition of human IGROV1 cells at 10 uM after 48 hrs by sulforhodamine B assay; details: IGROV-1, 48 h, values are per cent of control
[13] = Growth inhibition of human Hs 578T cells at 10 uM after 48 hrs by sulforhodamine B assay; details: values are per cent of control
[14] = Growth inhibition of human OVCAR5 cells at 10 uM after 48 hrs by sulforhodamine B assay; details: OVCAR-5, 48 h, values are per cent of control
[15] = Growth inhibition of human SF295 cells at 10 uM after 48 hrs by sulforhodamine B assay; details: SF-295, 48 h, values are per cent of control
[16] = Growth inhibition of human Caki1 cells at 10 uM after 48 hrs by sulforhodamine B assay; details: CAKI-1, 48 h, values are per cent of control
SK-MEL-2 = test: Growth inhibition of human SK-MEL-2 cells at 10 uM after 48 hrs by sulforhodamine B assay; details: SK-MEL-2, 48 h, values are per cent of control
HT-29 = test: Growth inhibition of human HT-29 cells at 10 uM after 48 hrs by sulforhodamine B assay; details: HT-29, 48 h, values are per cent of control
T47D = test: Growth inhibition of human T47D cells at 10 uM after 48 hrs by sulforhodamine B assay; details: values are per cent of control
[17] = Growth inhibition of human OVCAR4 cells at 10 uM after 48 hrs by sulforhodamine B assay; details: OVCAR-4, 48 h, values are per cent of control
A498 = test: Growth inhibition of human A498 cells at 10 uM after 48 hrs by sulforhodamine B assay; details: A498, 48 h, values are per cent of control
ACHN = test: Growth inhibition of human ACHN cells at 10 uM after 48 hrs by sulforhodamine B assay; details: values are per cent of control
[18] = Growth inhibition of human OVCAR8 cells at 10 uM after 48 hrs by sulforhodamine B assay; details: OVCAR-8, 48 h, values are per cent of control
[19] = Growth inhibition of human HCC2998 cells at 10 uM after 48 hrs by sulforhodamine B assay; details: HCC 2998, 48 h, values are per cent of control
[20] = Growth inhibition of human UACC62 cells at 10 uM after 48 hrs by sulforhodamine B assay; details: UACC-62, 48 h, values are per cent of control
M14 = test: Growth inhibition of human M14 cells at 10 uM after 48 hrs by sulforhodamine B assay; details: M14, 48 h, values are per cent of control
NCI-H322M = test: Growth inhibition of human NCI-H322M cells at 10 uM after 48 hrs by sulforhodamine B assay; details: values are per cent of control
SN12C = test: Growth inhibition of human SN12C cells at 10 uM after 48 hrs by sulforhodamine B assay; details: values are per cent of control
[21] = Growth inhibition of human SNB75 cells at 10 uM after 48 hrs by sulforhodamine B assay; details: SNB-75, 48 h, values are per cent of control
[22] = Growth inhibition of human SKOV3 cells at 10 uM after 48 hrs by sulforhodamine B assay; details: SK-OV-3, 48 h, values are per cent of control
[23] = Growth inhibition of human SW620 cells at 10 uM after 48 hrs by sulforhodamine B assay; details: SW-620, 48 h, values are per cent of control
K562 = test: Growth inhibition of human K562 cells at 10 uM after 48 hrs by sulforhodamine B assay; details: K562, 48 h, values are per cent of control

Compound | growth, % of control at 10 µM (786-0) [%] | growth, % of control at 10 µM [1] [%] | growth, % of control at 10 µM [2] [%] | growth, % of control at 10 µM [3] [%] | growth, % of control at 10 µM [4] [%] | growth, % of control at 10 µM [5] [%] | growth, % of control at 10 µM (SK-MEL-5) [%] | growth, % of control at 10 µM [6] [%] | growth, % of control at 10 µM (NCI-H23) [%] | growth, % of control at 10 µM [7] [%] | growth, % of control at 10 µM (A549) [%] | growth, % of control at 10 µM (SK-MEL-28) [%] | growth, % of control at 10 µM [8] [%] | growth, % of control at 10 µM (MDA-MB-231) [%] | growth, % of control at 10 µM [9] [%] | growth, % of control at 10 µM (NCI-H522) [%] | growth, % of control at 10 µM [10] [%] | growth, % of control at 10 µM [11] [%] | growth, % of control at 10 µM (NCI-H460) [%] | growth, % of control at 10 µM [12] [%] | further results
N#C/C(=C\c1cc(Br)cc(Br)c1)c1ccc2c(c1)OCO2 | 98.2 | 97.1 | 82.1 | 94.9 | 96.1 | 92.6 | 95.4 | 93.5 | 91.5 | 94.4 | 79.9 | 98.9 | 95.5 | 89.9 | 94.2 | 76.3 | 76.5 | 106 | 99.4 | 85.1 | growth, % of control at 10 µM [13]: 112%; growth, % of control at 10 µM [14]: 100%; growth, % of control at 10 µM [15]: 96.4%; growth, % of control at 10 µM [16]: 88.1%; growth, % of control at 10 µM (SK-MEL-2): 88.7%; growth, % of control at 10 µM (HT-29): 91.1%; growth, % of control at 10 µM (T47D): 82%; growth, % of control at 10 µM [17]: 81.3%; growth, % of control at 10 µM (A498): 90.4%; growth, % of control at 10 µM (ACHN): 96.1%; growth, % of control at 10 µM [18]: 108%; growth, % of control at 10 µM [19]: 90.7%; growth, % of control at 10 µM [20]: 85.4%; growth, % of control at 10 µM (M14): 92.8%; growth, % of control at 10 µM (NCI-H322M): 91.4%; growth, % of control at 10 µM (SN12C): 94.7%; growth, % of control at 10 µM [21]: 77.3%; growth, % of control at 10 µM [22]: 94.4%; growth, % of control at 10 µM [23]: 101%; growth, % of control at 10 µM (K562): 96.2%
COc1cc(/C=C(\C#N)c2ccc3c(c2)OCO3)cc(OC)c1 | 94.5 | 103 | 96.3 | 99.7 | 95.6 | 102 | 97.3 | 95.5 | 96.6 | 104 | 84.6 | 106 | 106 | 92.5 | 94.4 | 87.9 | 78.6 | 97.7 | 102 | 87.1 | growth, % of control at 10 µM [13]: 115%; growth, % of control at 10 µM [14]: 111%; growth, % of control at 10 µM [15]: 99.2%; growth, % of control at 10 µM [16]: 96.5%; growth, % of control at 10 µM (SK-MEL-2): 94.4%; growth, % of control at 10 µM (HT-29): 92.4%; growth, % of control at 10 µM (T47D): 75.6%; growth, % of control at 10 µM [17]: 82.9%; growth, % of control at 10 µM (A498): 88.9%; growth, % of control at 10 µM (ACHN): 108%; growth, % of control at 10 µM [18]: 92.3%; growth, % of control at 10 µM [19]: 102%; growth, % of control at 10 µM [20]: 86.4%; growth, % of control at 10 µM (M14): 99.5%; growth, % of control at 10 µM (NCI-H322M): 89.5%; growth, % of control at 10 µM (SN12C): 95.3%; growth, % of control at 10 µM [21]: 68.9%; growth, % of control at 10 µM [22]: 101%; growth, % of control at 10 µM [23]: 102%; growth, % of control at 10 µM (K562): 98.7%
